# Assay results from publication PMC9069370, “Integrated Design of a Membrane‐Lytic Peptide‐Based Intravenous Nanotherapeutic Suppresses Triple‐Negative Breast Cancer” (Advanced Science, 2022).
# Where a name gives a salt, the structure may show the parent alone. Read-outs that look alike come from different tables or passages of the source. Square brackets hold non-standard residues; d marks the D form. Peptide text beside a SMILES is read from it.
# How the values were obtained:
# U2OS = format: cell-based, human; conditions: 2D culture, MTT, 72 h incubation; library peptides n = 2; D-enantiomers and small molecules replicated six times; read-out: IC50 (µM) U2OS
# [1] = ANTS/DPX liposome leakage assay; conditions: 0.5 mM vesicles, peptide 0-20 µM, 3 h incubation, lipid per peptide
# Outline: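 Extruded 0.1 µm POPC or POPC/POPG (3:1) vesicles were loaded with 5 mM ANTS and 12.5 mM DPX, gel-filtered, then used at 0.5 mM lipid with titrated peptide at pH 7.4 or pH 4.8 (acidified PBS). Leakage was read at ex 350/em 510 nm after 3 h against 10% Triton maximum, expressed as lipid/peptide ratio for 50% leakage.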
# HEK293T = assay: cells; format: cell-based, human; conditions: non-cancerous cells; 2D culture, MTT, 72 h incubation; library peptides n = 2; D-enantiomers and small molecules replicated six times; read-out: IC50 (µM) HEK293T
# HMLER‐shEcad [2] = assay: cells; format: cell-based, human; conditions: for IC50: 2D culture
# Source text: (§1) […], and MCF-10A cells were maintained in MEGM with supplements and growth factors bovine pituitary extract, hydrocortisone, human epidermal growth factor, insulin, and gentamicin/amphotericin-B.
# MCF‐10A = assay: cells; format: cell-based, human; conditions: for IC50: non-cancerous cells, MTT, 72 h incubation, library peptides n = 2, D-enantiomers and small molecules replicated six times, read-out: IC50 (µM) MCF-10A
# Source text: as §1
# HMLER = assay: cells; format: cell-based, human; conditions: 2D culture, MTT, 72 h incubation; library peptides average of two independent experiments (n = 2); D-enantiomers and small molecules replicated six times; read-out: IC50 (µM) HMLER
# Source text: as §1
# HMLER‐shEcad [3] = assay: Resistance formation after prolonged drug exposure, 2D culture; format: cell-based, human; conditions: for IC50: Homo sapiens
# Experimental: Cancer stem cells can survive treatment, gain resistance, and reseed tumors, presenting a major challenge for chemotherapy.^[ [2] ^] […] Drugs were added with medium every 3–4 days, maintaining smooth cell growth, and 125 000 cells were split into new T25 flasks with a total volume of 5 mL once per week.
# [4] = Tryptophan fluorescence and circular dichroism binding to vesicles; conditions: binding to both POPC and POPG vesicles; 50 µM peptide, 10 mM phosphate buffer, pH 7.0
# Experimental: 50 µM ACP peptides and varied concentrations (concentrations: 0, 25, 50, 100, 150, 200, 250, 500, 1250, and 2500 µM) of POPC or POPC:POPG (3:1 ratio) large unilamellar vesicles were prepared in 10 mM phosphate buffer (pH 7.0). The solutions were measured after 1 h of incubation. Excitation was fixed at 280 nm (slit 9 nm) and emission was collected from 300 to 450 nm (slit 9 nm). The spectra were recorded using Cytation 5 Cell Imaging Multi‐Mode Reader from BioTek and were averaged by three scans.
# Extended Data Figure 9 | Peptide-lipid interactions. Conformational change of tryptophan fluorescence quenching of 50 µM DHK peptide with titrated a, POPC or b, POPG LUV concentration (0, 12.5, 25, 50, […]
# POPC or d, POPG LUV against elevated temperature (20, 45, 70, and 95 °C). The black solid line represents peptide-only in buffer at 20 °C. All the experiments were performed in 10 mM phosphate buffer, pH 7.0.
# (1 picture or pasted object on this page, not shown here)
# [5] = Tryptophan fluorescent binding assay; conditions: tryptophan fluorescence; 50 µM peptide, lipid titrated 0-5000 µM; phosphate buffered saline 1X, pH 7.4; values as lipid per peptide
# Outline: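 Tryptophan fluorescence was used to follow binding of peptide, fixed at 50 µM, to large unilamellar vesicles of POPC:POPG (3:1 ratio) titrated into phosphate buffered saline (1X, pH 7.4). After 1 h incubation, spectra were taken on a BioTek Cytation 5 reader with excitation at 280 nm and emission at 300 to 450 nm (9 nm slits), averaging three scans.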
# human red blood cells = assay: Haemolysis (human red blood cells); format: cell-based; conditions: PBS, 37 °C, 1 h
# Experimental: Fresh human red blood cells were obtained from Interstate Blood Bank, Inc., and thoroughly washed in PBS until the supernatant was clear. The peptide was serially diluted in PBS starting at a concentration of 200 µM. […] As a positive lysis control, 1% triton was used. […] After centrifugation, 10 µL of supernatant was transferred to 90 µL of ddH2O in a fresh 96‐well plate.
# MCF‐10A mammospheres = assay: Mammosphere viability assay (TOX8); format: cell-based, human
# [6] = tested on: HMLER‐shEcad tumorspheres; assay: cells; format: cell-based, human; conditions: for IC90: reducing tumorsphere cell viability by 90%, read-out: IC90 against HMLER‐shEcad tumorspheres
# various [7] = conditions: read-out: IC50 [µM], various; 2D and 3D tumorspheres; summary of Figures 2, 3 and 5
# Source text: The final concentration of DMSO in each well was either 0.5% or 0% and this amount was present in the untreated control.
# MCF‐7 = conditions: 2D; ref [11], [19], [47]; cited from earlier work
# Source text: (§2) Table 1 ACP activity comparison. Reported in vitro anticancer activity (IC50) of ACPs | column: IC50 [µM]
# [8] = cited from earlier work
# Source text: (§3) Table 1 ACP activity comparison. Reported in vitro anticancer activity (IC50) of ACPs | column: Assay and Notes
# various [9] = conditions: 2D; ref [70]; cited from earlier work
# Source text: as §2
# HCT116 = conditions: 2D; ref [69]; cited from earlier work
# Source text: as §2
# A20, AT84, MRC‐5 = conditions: ref [22], [23], [57], [63]; cited from earlier work
# Source text: as §2
# A549 = conditions: 2D; ref [68]; cited from earlier work
# Source text: as §2
# tumor in mouse = conditions: dose: 25 mg kg^−1; ref [68]; cited from earlier work
# Source text: as §3
# [10] = PBS 1X pH 7.4, high ratio = more potent
compound,measurement,setting,value
CC(C)C[C@H](NC(=O)CN)C(=O)N[C@@H](CC(C)C)C(=O)N[C@@H](CC(=O)O)C(=O)N[C@@H](CC(C)C)C(=O)N[C@@H](CC(C)C)C(=O)N[C@@H](Cc1c[nH]cn1)C(=O)N[C@@H](CC(C)C)C(=O)N[C@@H](CC(C)C)C(=O)N[C@@H](CC(C)C)C(=O)N[C@@H](CCCCN)C(=O)N[C@@H](C)C(=O)N[C@@H](C)C(=O)NCC(=O)N[C@@H](Cc1c[nH]c2ccccc12)C(N)=O [DHK] (H-GLLDLLHLLLKAAGW-NH2),IC50,U2OS,20.4 ± 2.05 µM
same,"Peptide Concentration-induced 50 % ANTS/DPX leakage at pH 4.8 (L/P), 3POPC/1POPG Vesicle",[1]; HCl-adjusted PBS 1X pH 4.8,183 L/P
same,"Peptide Concentration-induced 50 % ANTS/DPX leakage at pH 4.8 (L/P), POPC Vesicle",[1]; HCl-adjusted PBS 1X pH 4.8,47 L/P
same,"Peptide Concentration-induced 50 % ANTS/DPX leakage at pH 7.4 (L/P), 3POPC/1POPG Vesicle",[1]; [10],469 L/P
same,"Peptide Concentration-induced 50 % ANTS/DPX leakage at pH 7.4 (L/P), POPC Vesicle",[1]; [10],747 L/P
same,IC50,HEK293T,7.3 ± 0.42 µM
same,IC50,"HMLER‐shEcad [2]; MTT, 72 h incubation, library peptides average of two independent experiments (n = 2), D-enantiomers and small molecules replicated six times, read-out: IC50 (µM) HMLER-shEcad",1.02 ± 0.12 µM
same,IC50,MCF‐10A; 2D culture,5.05 ± 1.34 µM
same,IC50,HMLER,1.75 ± 0.49 µM
same,shift in IC50 after prolonged exposure to ACP,HMLER‐shEcad [3]; 2D HMLER‐shEcad after 28 days co‐incubation with 0.4 µM d‐DHK,no shift in IC50
same,∆G binding,[4],-8.8 ± 1.2 kcal/mol
same,"Lipid Concentration-induced 50% Peptide Binding (L/P), 3POPC/1POPG Vesicle",[5],0.38 L/P
same,"Lipid Concentration-induced 50% Peptide Binding (L/P), POPC Vesicle",[5],0.20 L/P
same,HC50,"human red blood cells; one value for DHK, d‐DHK and d‐EEK together",14 ± 5 µM
"COc1cccc2c1C(=O)c1c(O)c3c(c(O)c1C2=O)C[C@@](O)(C(=O)CO)C[C@@H]3O[C@H]1C[C@H](N)[C@H](O)[C@H](C)O1 [Doxorubicin, Doxorubicin hydrochloride, reference compound]",IC90 in 2D assay,"HMLER‐shEcad [2]; 2D HMLER‐shEcad (Figure 3d,f), cells remained viable in the high micromolar range",could not be attained
same,IC50,"HMLER‐shEcad [2]; Homo sapiens, read-out: IC50, HMLER-shEcad cell viability, co-incubation with 5 µM z-VAD-FMK",0.0477 ± 0.0026 µM
same,IC50,"HMLER‐shEcad [2]; Homo sapiens, read-out: IC50, HMLER-shEcad cell viability, co-incubation with 20 µM necrostatin-1",0.0631 ± 0.0042 µM
same,IC50,"HMLER‐shEcad [2]; Homo sapiens, read-out: IC50, HMLER-shEcad cell viability, compound alone",0.0031 ± 0.0004 µM
same,therapeutic window (fold IC50) in 2D assays,MCF‐10A; 2D assays,> 100 fold
same,selectivity for cancerous cells over non‐tumorigenic MCF‐10A,"MCF‐10A; 2D culture, ratio of IC50",> 160 fold
same,IC50,"HMLER‐shEcad [3]; 240 h, 2D HMLER‐shEcad after 10 days co‐incubation with 30 nM doxorubicin, read-out: IC50 of doxorubicin after prolonged doxorubicin exposure",0.189 ± 0.068 µM
same,IC50,"HMLER‐shEcad [3]; 2D HMLER‐shEcad, vehicle, read-out: IC50 of doxorubicin, cells before/without doxorubicin exposure",0.024 ± 0.002 µM
same,IC90 against MCF‐10A mammospheres,MCF‐10A mammospheres,167 ± 7 µM
same,therapeutic window (fold IC50) in the 3D assay,MCF‐10A mammospheres; 3D spheroid assay,≈ 3 fold
same,tumorsphere cell viability,"[6]; HMLER‐shEcad tumorspheres, at 133 µM",> 15%
same,IC50,"[6]; Homo sapiens, 120 h, 3D multicellular spheroids, 5 days, TOX8 fluorescence read-out, read-out: IC50 against HMLER‐shEcad tumorspheres",43 ± 6 µM
same,IC90,"[6]; Homo sapiens, 3D multicellular spheroids",138 ± 11 µM
CC(C)C[C@H](NC(=O)CN)C(=O)N[C@@H](CC(C)C)C(=O)N[C@@H](CCC(=O)O)C(=O)N[C@@H](CC(C)C)C(=O)N[C@@H](CC(C)C)C(=O)N[C@@H](CCC(=O)O)C(=O)N[C@@H](CC(C)C)C(=O)N[C@@H](CC(C)C)C(=O)N[C@@H](CC(C)C)C(=O)N[C@@H](CCCCN)C(=O)N[C@@H](C)C(=O)N[C@@H](C)C(=O)NCC(=O)N[C@@H](Cc1c[nH]c2ccccc12)C(N)=O [EEK] (H-GLLELLELLLKAAGW-NH2),IC50,MCF‐10A; 2D culture,> 200 µM
same,IC90 against MCF‐10A mammospheres,MCF‐10A mammospheres; 3D non‐tumorigenic mammospheres,141 ± 11 µM
same,IC90,[6]; 3D multicellular spheroids,23 ± 3 µM
same,IC50,various [7],1 to 27 µM
same,human red blood cell lysis,human red blood cells,only minimal human red blood cell lysis below 90 µM
CC(C)[C@H](NC(=O)[C@H](CCCCN)NC(=O)[C@@H](NC(=O)[C@H](CCCCN)NC(=O)[C@@H](NC(=O)[C@H](CCCCN)NC(=O)[C@@H](NC(=O)[C@@H]1CCCN1C(=O)[C@H]1CCCN1C(=O)[C@@H](NC(=O)[C@H](CCCCN)NC(=O)[C@@H](NC(=O)[C@H](CCCCN)NC(=O)[C@@H](NC(=O)[C@H](CCCCN)NC(=O)[C@@H](NC(=O)[C@@H](N)CCCCN)C(C)C)C(C)C)C(C)C)C(C)C)[C@@H](C)O)C(C)C)C(C)C)C(=O)N[C@@H](CCCCN)C(N)=O [SVS‐1] (H-KVKVKVKV[dP]PTKVKVKVK-NH2; N-terminus and C-terminus assumed),IC50,MCF‐7,11 µM
same,drug resistance note,"[8]; ref [11], [19], [47]",2D; in vitro drug resistance was observed
Aurein 1.2,IC50,various [9],10 to 100 µM
LL37,IC50,HCT116,40 µM
same,toxicity note,[8]; ref [69],2D; Vascular toxicity
LTX‐315,IC50,"A20, AT84, MRC‐5",8 to 34 µM
Magainin II,IC50,A549,45 µM
same,outcome in mouse xenograft model,tumor in mouse,2D and mouse xenograft model (dose: 25 mg kg^−1); The tumor in mouse was smaller and still growing in 40 days
